Test results as given in article PMC6324787, “Deletion of genes involved in the ketogluconate metabolism, Entner-Doudoroff pathway, and glucose dehydrogenase increase local and invasive virulence phenotypes in Streptococcus pneumoniae” (PLoS ONE, 2019).

Columns and labels:
[1] = molecular target: T1, SP 0318 (Streptococcus pneumoniae, UniProt A0A0H2UNG9); assay: ADP-glucokinase / G6PDH-coupled NADPH formation, A340; assay type: biochemical; details: 10 mM KDG, 2.5 mM ATP, 10 mM MgCl2, 50 mM Tris-Cl, pH 8.5, 37 °C
T1 construct: gene SP_0318
T1 sequence (A0A0H2UNG9 1-333): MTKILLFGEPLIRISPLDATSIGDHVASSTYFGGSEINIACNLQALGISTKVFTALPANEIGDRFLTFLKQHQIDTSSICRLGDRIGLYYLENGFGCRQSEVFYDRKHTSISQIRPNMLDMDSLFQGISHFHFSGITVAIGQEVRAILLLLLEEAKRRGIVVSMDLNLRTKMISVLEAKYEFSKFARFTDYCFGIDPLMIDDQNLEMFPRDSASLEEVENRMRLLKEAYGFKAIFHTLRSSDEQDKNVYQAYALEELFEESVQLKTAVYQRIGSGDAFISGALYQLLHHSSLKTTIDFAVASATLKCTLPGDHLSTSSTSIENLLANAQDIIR

[2] = molecular target: T2, SP 0320 (Streptococcus pneumoniae, UniProt A0A0H2UNC9); assay: NADH oxidation, A340; assay type: biochemical; details: 300 mM potassium 5-keto-D-gluconate, 150 µM NADH, 100 mM Tris-Cl, pH 6.5, 37 °C
T2 construct: gene SP_0320
T2 sequence (A0A0H2UNC9 1-271): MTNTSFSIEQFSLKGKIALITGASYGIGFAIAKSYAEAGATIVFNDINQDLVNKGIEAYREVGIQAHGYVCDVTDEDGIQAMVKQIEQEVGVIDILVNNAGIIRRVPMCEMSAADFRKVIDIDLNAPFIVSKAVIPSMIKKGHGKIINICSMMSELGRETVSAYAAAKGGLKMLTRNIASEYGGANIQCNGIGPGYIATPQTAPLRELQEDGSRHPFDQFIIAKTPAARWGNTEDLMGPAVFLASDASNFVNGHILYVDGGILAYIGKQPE

SMILES	ADP-glucokinase / G6PDH-coupled NADPH formation, A340 [1]	NADH oxidation, A340 [2]
Nc1ncnc2c1ncn2[C@@H]1O[C@H](COP(=O)(O)OP(=O)(O)OP(=O)(O)O)[C@@H](O)[C@H]1O [ATP]	phosphorylation of 2-keto-3-deoxygluconate (KDG) in the presence of ATP to give KDGP	–
NC(=O)C1=CN([C@@H]2O[C@H](COP(=O)(O)OP(=O)(O)OC[C@H]3O[C@@H](n4cnc5c(N)ncnc54)[C@H](O)[C@@H]3O)[C@@H](O)[C@H]2O)C=CC1 [NADH]	–	reduction of 5-keto-D-gluconate to D-gluconate with the subsequent oxidation of NADH
